# Assay results: patent US6949250B2, “Selective algaecides for control of cyanochloronta” (The United States of America as represented by the …, priority 2002, dated 2005)
# Like-named read-outs stand apart in the source and are kept apart here.
# What was measured:
# Oscillatoria perornata = assay: Rapid bioassay screening for selective algicides (LOEC, LCIC); format: cell-based; conditions: for MIC: read-out: LCIC (lowest-complete-inhibition concentration), Oscillatoria perornata; for minimal effective concentration: read-out: LOEC (lowest-observed-effect concentration), Oscillatoria perornata
# From the text: (§1) These were screened in the laboratory by the method of Schrader et al. (K. K. Schrader, M. Q. de Regt, C. S. Tucker and S. O. Duke, A rapid bioassay for selective algicides. Weed Technol. (1997), vol. 11, pp. 767-774) for algicidal activity.
# (§2) The anthraquinone derivatives were screened for selective toxicity towards Oscillatoria perornata, previously isolated from a Mississippi catfish pond, using the method of Schrader et al. (1997). The green alga Selenastrum capricornutum (obtained from the United States Environmental Protection Agency, Corvallis, Oreg.) was used as the representative green algal species in the bioassay since it is a common species found in southeastern United States catfish ponds. Absorbance readings were graphed, and graphs were used to determine the LOEC (lowest-observed-effect concentration) and the LCIC (lowest-complete-inhibition concentration) for each anthraquinone analog. In addition, a 96-hour 50% inhibition concentration (IC50) was determined for DNA1-19-1 and DNA2-59-1 by using the method described by Schrader et al. (1998b). Stock solutions of DNA1-19-1 and DNA2-59-1 were prepared so that final concentrations screened for 96-hour IC50 determinations were as follows: 1) 0, 0.01, 0.033, 0.1, 0.333, 1.0, 3.3, and 10.0 μM DNA1-19-1 for both O. perornata and S. capricornutum; 2) 0, 0.003, 0.01, 0.033, 0.1, 0.333, 1.0, and 3.333 μM DNA2-59-1 for O. perornata; and 3) 0, 0.1, 0.333, 1.0, 3.333, 10.0, 33.333, and 100.0 μM DNA2-59-1 for S. capricornutum. Estimation of the IC50 was determined by plotting 96-hour absorbance readings against logarithmic dilution values of the anthraquinone analogs. The screening results of the anthraquinone derivatives and commercially available analogs of anthraquinone are presented in Tables 1 and 2, respectively. The results in Table 1 reveal that DNA1-19-1 and DNA2-59-1 are the most promising analogs since these two compounds had the lowest LOEC and LCIC values for O. perornata (10 nM and 100 nM, respectively). Based upon IC50 results in Table 3, DNA2-59-1 appears to be more toxic and selective towards O. perornata than DNA1-19-1.
# as §2, with “(A rapid bioassay for selective algicides. Weed Technol. (1997), vol. 11, pp. 767-774).” for “(1997).”, “(K. K. Schradar, M. Q. de Regt, P. D. Tidwell, C. S. Tucker and S. O. Duke, Selective growth inhibition of the musty-odor producing cyanobacterium Oscillatoria cf. chalybea by natural compounds. Bull. Environ. Contam. Toxicol. (1998a), vol.60, pp. 651-658).” for “(1998b).”, “The screening results of the anthraquinone derivatives and commercially available analogs of anthraquinone are presented in Tables 1 and 2, respectively. The results in Table 1 reveal that DNA1-19-1 and DNA2-59-1 are the most promising analogs since these two compounds had the lowest LOEC and LCIC values for O. perornata (10 nM and 100 nM, respectively). Based upon IC50 results in Table 3, DNA2-59-1 appears to be more toxic and selective towards O. perornata than DNA1-19-1.” left out
# [1] = system: Selenastrum capricornutum; assay: as above; format: cell-based; conditions: for MIC / minimal effective concentration: Selenastrum capricornutum; for MIC: read-out: LCIC (lowest-complete-inhibition concentration), Selenastrum capricornutum; for minimal effective concentration: read-out: LOEC (lowest-observed-effect concentration), Selenastrum capricornutum
# From the text: as §1, §2
# as §2, with “(A rapid bioassay for selective algicides. Weed Technol. (1997), vol. 11, pp. 767-774).” for “(1997).”, “(K. K. Schradar, M. Q. de Regt, P. D. Tidwell, C. S. Tucker and S. O. Duke, Selective growth inhibition of the musty-odor producing cyanobacterium Oscillatoria cf. chalybea by natural compounds. Bull. Environ. Contam. Toxicol. (1998a), vol.60, pp. 651-658).” for “(1998b).”, “The screening results of the anthraquinone derivatives and commercially available analogs of anthraquinone are presented in Tables 1 and 2, respectively. The results in Table 1 reveal that DNA1-19-1 and DNA2-59-1 are the most promising analogs since these two compounds had the lowest LOEC and LCIC values for O. perornata (10 nM and 100 nM, respectively). Based upon IC50 results in Table 3, DNA2-59-1 appears to be more toxic and selective towards O. perornata than DNA1-19-1.” left out
# [2] = Planktothrix perornata, rapid screening
SMILES,MIC (Oscillatoria perornata; [2]),MIC ([1]; rapid screening),"LCIC (lowest-complete-inhibition concentration), Oscillatoria perornata (Oscillatoria perornata; rapid screening)","LCIC (lowest-complete-inhibition concentration), Selenastrum capricornutum ([1]; rapid screening)","LOEC (lowest-observed-effect concentration), Selenastrum capricornutum ([1]; rapid screening)","LOEC (lowest-observed-effect concentration), Oscillatoria perornata (Oscillatoria perornata; rapid screening)",also measured
"O=C1c2ccccc2C(=O)c2c(O)ccc(O)c21 [1,4-dihydroxyanthraquinone, reference compound]",> 100 µM,> 100 µM,–,–,–,–,–
"O=C1c2cccc(O)c2C(=O)c2c(O)cccc21 [1,8-dihydroxyanthraquinone, reference compound]",100 µM,> 100 µM,–,–,–,–,–
"CNc1cccc2c1C(=O)c1ccccc1C2=O [1-(methylamino) anthraquinone, reference compound]",–,–,–,–,–,–,MIC (Oscillatoria perornata; Planktothrix perornata): 100 µM; MIC [1]: > 100 µM
"Nc1cccc2c1C(=O)c1ccccc1C2=O [1-aminoanthraquinone, reference compound]",100 µM,> 100 µM,–,–,–,–,–
"Nc1ccc2c(c1)C(=O)c1ccccc1C2=O [2-aminoanthraquinone, reference compound]",> 100 µM,> 100 µM,–,–,–,–,–
"O=C1c2ccccc2C(=O)c2cc(CO)ccc21 [2-hydroxymethyl-anthraquinone, reference compound]",–,–,–,–,–,–,MIC (Oscillatoria perornata; Planktothrix perornata): 10 µM; MIC [1]: 100 µM
"CN(C)CCCNCc1ccc2c(c1)C(=O)c1ccccc1C2=O.O=P(O)(O)O.O=P(O)(O)O [DNA2-23-1, 2-[Methylamino-N-(propyl-3′-N,N-dimethylamino)]-9,10-anthraquinone diphosphate]",–,–,"1,000 nM","10,000 nM","10,000 nM",–,minimal effective concentration (Oscillatoria perornata; rapid screening): 0.1 µM
"CCN(CC)CCCNCc1ccc2c(c1)C(=O)c1ccccc1C2=O.O=P(O)(O)O.O=P(O)(O)O [DNA2-25-1, 2-[Methylamino-N-(propyl-3′-N,N-diethylaminopropyl)]-9,10-anthraquinone diphosphate]",–,–,–,"10,000 nM","10,000 nM",–,MIC (Oscillatoria perornata; rapid screening): 0.1 µM; minimal effective concentration (Oscillatoria perornata; rapid screening): 0.1 µM
"CC(C)N(Cc1ccc2c(c1)C(=O)c1ccccc1C2=O)C(C)C.O=P(O)(O)O [DNA2-49-1, 2-[Methylamino-N,N-(di-1′-methylethyl)]-9,10-anthraquinone monophosphate]",–,–,"1,000 nM",1e+06 nM,"100,000 nM","1,000 nM",–
"CCN(CC)Cc1ccc2c(c1)C(=O)c1ccccc1C2=O.O=P(O)(O)O [DNA2-51-1, 2-[Methylamino-N,N-(diethyl)]-9,10-anthraquinone monophosphate]",–,–,–,"100,000 nM","10,000 nM",–,MIC (Oscillatoria perornata; rapid screening): 0.1 µM; minimal effective concentration (Oscillatoria perornata; rapid screening): 0.1 µM
"CCCC(C)NCc1ccc2c(c1)C(=O)c1ccccc1C2=O.O=P(O)(O)O (stereo not shown) [DNA2-53-1, 2-[Methylamino-N-(1′-methylbutyl)]-9,10-anthraquinone monophosphate]",–,–,–,"100,000 nM","100,000 nM",–,MIC (Oscillatoria perornata; rapid screening): 0.1 µM; minimal effective concentration (Oscillatoria perornata; rapid screening): 0.1 µM
"CCCCCNCc1ccc2c(c1)C(=O)c1ccccc1C2=O.O=P(O)(O)O [DNA2-55-1, 2-[Methylamino-N-(pentyl)]-9,10-anthraquinone monophosphate]",–,–,"1,000 nM","100,000 nM","100,000 nM","1,000 nM",–
"CCCCN(CCCC)Cc1ccc2c(c1)C(=O)c1ccccc1C2=O.O=P(O)(O)O [DNA2-57-1, 2-[Methylamino-N,N-(dibutyl)]-9,10-anthraquinone monophosphate]",–,–,"1,000 nM",1e+06 nM,"100,000 nM","1,000 nM",–
"CCN(CC)CCCNC(C)c1ccc2c(c1)C(=O)c1ccccc1C2=O (stereo not shown) [DNA2-87-1, 2-[1′-Amino-N-(propyl-3″-N,N-diethylamino)ethyl]-9,10-anthraquinone]",–,–,"100,000 nM","100,000 nM","100,000 nM","1,000 nM",–
"CC(C)NC(C)c1ccc2c(c1)C(=O)c1ccccc1C2=O (stereo not shown) [DNA2-89-1, 2-[1′-Amino-N-(1′-methylethyl)ethyl]-9,10-anthraquinone 9,10-anthraquinone]",–,–,"1,000 nM","100,000 nM","100,000 nM","1,000 nM",–
"CCN(CC)CCCNc1cccc2c1C(=O)c1ccccc1C2=O.O=P(O)(O)O [DNA2-91-1, 1-amino-N-(propyl-3′-N,N-diethylamino)-9,10-anthraquinone phosphate]",–,–,"10,000 nM","100,000 nM","100,000 nM","10,000 nM",–
"CN(C)CCCNc1cccc2c1C(=O)c1ccccc1C2=O.O=P(O)(O)O [DNA2-93-1, 1-amino-N-(propyl-3′-N,N-dimethylamino)-9,10-anthraquinone phosphate]",–,–,"1,000 nM","100,000 nM","100,000 nM","1,000 nM",–
"COCCOc1ccc2c(c1)C(=O)c1ccccc1C2=O [DNA2-97-2, 2-(2-Methoxyethoxy)-9,10-anthraquinone]",10 µM,> 100 µM,–,–,–,–,minimal effective concentration (Oscillatoria perornata; [2]): 10 µM; minimal effective concentration ([1]; rapid screening): > 100 µM
"O=C1c2ccccc2C(=O)c2cc(OCCOCCOCCO)ccc21 [DNA2-99-2, 2-[2-[2-(2-Hydroxyethoxy)ethoxy]ethoxy]-9,10-anthraquinone]",10 µM,> 100 µM,–,–,–,–,minimal effective concentration (Oscillatoria perornata; [2]): 10 µM; minimal effective concentration ([1]; rapid screening): > 100 µM
"COCCOCCOc1ccc2c(c1)C(=O)c1ccccc1C2=O [DNA3-5-1, 2-[2-(2-Methoxyethoxy)ethoxy]-9,10-anthraquinone]",10 µM,> 100 µM,–,–,–,–,minimal effective concentration (Oscillatoria perornata; [2]): 0.1 µM; minimal effective concentration ([1]; rapid screening): > 100 µM
"COCCOCCOc1cccc2c1C(=O)c1ccccc1C2=O [DNA3-7-1, 1-[2-(2-Methoxyethoxy)ethoxy]-9,10-anthraquinone]",100 µM,> 100 µM,–,–,–,–,minimal effective concentration (Oscillatoria perornata; [2]): 10 µM; minimal effective concentration ([1]; rapid screening): > 100 µM
"COCCOCCOCCOc1ccc2c(c1)C(=O)c1ccccc1C2=O [DNA3-9-1, 2-[2-[2-(2-methoxyethoxy)ethoxy]ethoxy]-9,10-anthraquinone]",10 µM,> 100 µM,–,–,–,–,minimal effective concentration (Oscillatoria perornata; [2]): 10 µM; minimal effective concentration ([1]; rapid screening): > 100 µM
